In US8053581B2, “Trisubstituted thiazole compounds, preparations methods, pharmaceutical compositions and medicals uses thereof” (Institute of Pharmacology and Toxicology Academy of …, priority 2006, dated 2011):

Row | SMILES | melting point
1 | COc1ccc(-c2nc(N)sc2Cc2ccccc2)cc1 [Example 1, 5-benzyl-4-(4-methoxy-phenyl)-thiazol-2-ylamine] | 177 to 178 °C
2 | Oc1ccc(-c2nc(N3CCNCC3)sc2Cc2ccccc2)cc1 [Example 75, 4-(5-benzyl-2-piperazin-4-yl-thiazol-4-yl)-phenol] | 222 to 223 °C
3 | COc1ccc(-c2nc(N(CCO)CCO)sc2Cc2ccccc2)cc1 [Example 73, 2-[[5-benzyl-4-(4-methoxy-phenyl)-thiazol-2-yl]-(2-hydroxy-ethyl)-amino]-ethanol] | 119 to 120 °C
4 | COc1ccc(-c2nc(NC(=O)c3ccc(OC)c(OC)c3)sc2C)cc1 [Example 54, 3,4-dimethoxy-N-[4-(4-methoxy-phenyl)-5-methyl-thiazol-2-yl]-benzamide] | 174 to 175 °C
5 | Oc1ccc(-c2nc(CCc3ccc(O)c(O)c3)sc2Cc2ccccc2)cc1 [Example 78, 4-{2-[5-benzyl-4-(4-hydroxy-phenyl)-thiazol-2-yl]-ethyl}-benzene-1,2-diol] | 177 to 178 °C
6 | O=C(Nc1nc(-c2ccc(O)cc2)c(Cc2ccccc2)s1)c1cccc(O)c1 [Example 44, N-[5-benzyl-4-(4-hydroxy-phenyl)-thiazol-2-yl]-3-hydroxy-benzamide] | 233 to 234 °C
7 | COc1ccc(-c2nc(N)sc2C)cc1 [Example 52, 4-(4-methoxy-phenyl)-5-methyl-thiazol-2-ylamine] | 139 to 140 °C
8 | OCCN(CCO)c1nc(-c2ccc(O)cc2)c(Cc2ccccc2)s1 [Example 76, 4-(5-benzyl-2-[bis-(2-hydroxy-ethyl)-amino]-thiazol-4-yl)-phenol] | 167 to 168 °C
9 | COc1ccc(-c2nc(NC(=O)c3ccc(OC)c(OC)c3)sc2CCc2ccccc2)cc1 [Example 58, 3,4-dimethoxy-N-[4-(4-methoxy-phenyl)-5-phenylethyl-thiazol-2-yl]-benzamide] | 74 to 75 °C

Further lines, results first:

Row | melting point | SMILES
10 | 154 to 155 °C | COc1ccc(-c2nc(NC(=O)c3cc(F)cc(F)c3)sc2Cc2ccccc2)cc1 [Example 16, N-[5-benzyl-4-(4-methoxy-phenyl)-thiazol-2-yl]-3,5-difluoro-benzamide]
11 | 205 to 206 °C | O=C(Nc1nc(-c2ccc(O)cc2)c(Cc2ccccc2)s1)c1ccc(F)cc1 [Example 7, N-[5-benzyl-4-(4-hydroxy-phenyl)-thiazol-2-yl]-4-fluoro-benzamide]
12 | 184 to 185 °C | COc1ccc(-c2nc(NC(=O)c3ccc(F)cc3)sc2Cc2ccc(F)cc2)cc1 [Example 23, 4-fluoro-N-[5-(4-fluoro-benzyl)-4-(4-methoxy-phenyl)-thiazol-2-yl]-benzamide]
13 | 179 to 180 °C | COc1ccc(-c2nc(NC(=O)c3ccc(OC)c(OC)c3)sc2Cc2ccccc2)cc1 [Example 12, N-[5-benzyl-4-(4-methoxy-phenyl)-thiazol-2-yl]-3,4-dimethoxy-benzamide]
14 | 147 to 148 °C | COc1ccc(-c2nc(NC(=O)c3ccccc3OC)sc2Cc2ccccc2)cc1 [Example 36, N-[5-benzyl-4-(4-methoxy-phenyl)-thiazol-2-yl]-2-methoxy-benzamide]
15 | 106 to 108 °C | COc1ccc(-c2nc(NC(=O)c3ccc(OC)c(OC)c3)sc2Cc2ccc([N+](=O)[O-])cc2)cc1 [Example 28, 3,4-dimethoxy-N-[4-(4-methoxy-phenyl)-5-(4-nitro-benzyl)-thiazol-2-yl]-benzamide]
16 | 188 to 189 °C | COc1ccc(-c2nc(NC(=O)c3ccc(F)cc3)sc2Cc2ccc([N+](=O)[O-])cc2)cc1 [Example 10, 4-fluoro-N-[4-(4-methoxy-phenyl)-5-(4-nitro-benzyl)-thiazol-2-yl]-benzamide]
17 | 105 to 106 °C | COc1ccc(C(=O)Nc2nc(-c3ccccc3)c(Cc3ccc([N+](=O)[O-])cc3)s2)cc1OC [Example 29, 3,4-dimethoxy-N-[5-(4-nitro-benzyl)-4-phenyl-thiazol-2-yl]-benzamide]
